Test results reported in patent US10294205B2, “Allenamide as an orthogonal handle for selective modification of cysteine in peptides and proteins” (Nanyang Technological University, priority 2014, dated 2019).
Entries after “also recorded” stand apart in the source; their conditions may differ. Where no end group is shown, it is not given here. allenamide 1a = not defined here

What was measured:
[1] = Reaction of allenamide 1a with cysteine methyl ester (free thiol and amino groups)
Method: […] Reaction mixture was stirred for 30 minutes after which TLC confirmed the complete consumption of 1a. THF was evaporated on rotary evaporator and product was extracted two times in dichloromethane (2.5 mL each). Solvent was evaporated and product was purified by column chromatography (5% MeOH in dichloromethane) to get 32.8 mg (76% yield) of white solid (modified cysteine).

[2] = Reaction of 1a with lysine, serine and methionine under similar conditions; settings: similar conditions as for cysteine methyl ester
[3] = tested on: glutathione (GSH; 2); assay: Modification of glutathione (2) using allenamide 1a; type: biochemical
Method: 6.5 mg glutathione (0.021 mmol) was dissolved in 0.5 mL ammonium carbonate buffer (pH 8.0) in a 4 mL glass vial. To this solution was added 7.3 mg of allenamide 1a (0.042 mmol; 2 eq.) in 0.5 mL THF and resulting solution was mixed well using a pipette. […] This mixture was centrifuged at 8000 rpm for 5 min. Liquid was carefully decanted and the solid precipitated was washed two times with THF. The precipitate after final washing was dried in vacuum to give 9.9 mg (97% yield) of white solid (modified glutathione).

[4] = tested on: peptides CGKSRF (3), KSCGRF (4) and YDSQCFHRW (5); assay: Modification of peptides 3, 4 and 5 with allenamide 1a; type: biochemical
Method: 100 μL of the peptide solution (250 μM in ammonium carbonate buffer of pH 8.0) was mixed with an equal amount of the solution of 1a (2.5 mM in ammonium carbonate buffer containing 5% THF). After pipette mixing, reaction mixture was allowed to stand at room temperature for 10-20 minutes. […] Site selectivity was established by LC-MS/MS.
(§1) The irreversibility of the conjugation product was tested with peptide 5 and GSH (2). No reversion to starting material 5 was observed when the conjugation product of 5 and 1a was incubated with excess (100 equivalent) glutathione for overnight at 37° C. […] The irreversibility of specific cysteine labelling may thus enable the possibility for the protein modification in intracellular environment.

[5] = biological target: T1, bovine insulin (reduced chain A and chain B) (Bos taurus, UniProt P01317); assay: Modification of DTT-reduced bovine insulin using 1a; type: biochemical
T1 construct: purchased
Method: After promising results in simple peptides, similar modification of cysteine residue in more complicated peptide sequences was also examined. A more complex pair of peptides generated from the DTT treatment of bovine insulin was tested (FIG. 10).
10 equivalents of solid DTT was added to 2 ml of a 10 mM solution of bovine insulin in 50 mM ammonium carbonate buffer of pH 8. The mixture after pipette mixing was allowed to stand at 70° C. under nitrogen atmosphere for 10 minutes. LCMS was done after due time and cooling to room temperature to confirm complete reduction of disulfide bonds. […] Similarly the m/Z values corresponding to chain A were obtained as 779, 1169 and 2338 corresponding to +3, +2 and +1 charge on chain A (molecular weight 2337.97). To 1 ml of the reduced insulin mixture was added 25 equivalents of 1a dissolved in 500 μL of THF and reaction mixture was allowed to stand at room temperature for 30 min. after pipette mixing. […] Thus, the expected molecular weight of modified chain B was 3743.67 (3397.67+346) and that of chain A was 3029.97 (2337.97+692) and the observed m/z values for modified chain B were at 750, 937, 1249 and 1873 corresponding to +5, +4, +3 and +2 charge and for chain A were at 1011 and 1515 corresponding to +3 and +2 charge on the chain. The site selectivity was further confirmed by MS/MS (FIGS. 11 and 12, respectively).

[6] = biological target: T2, BSA (Bovine Serum Albumin) (Bos taurus, UniProt P02769); assay: Modification (alkylation) of BSA with compound 1a, trypsin digestion and LC-MS/MS; type: biochemical; settings: DTT-reduced BSA, 30 min at 37° C., pH 8.0
T2 construct: purchased
Method: 6.6 mg of BSA (0.1 μmol) was dissolved in 1 ml of ammonium carbonate buffer (pH 8.0). To this was added 2.3 mg solid DTT (15 μmol) and after pipette mixing resulting mixture was incubated over night at 37° C. 3.7 mg of 1a (21 μmol) dissolved in 1 ml of ammonium carbonate buffer (5% THF) was then added to it and incubated again for 30 min at 37° C. After due time, protein was purified through nano-separation filtration. The purified protein was subjected to trypsin digestion and LC-MS/MS using standard protocols (FIG. 13).

[7] = tested on: peptide 5 (YDSQCFHRW); assay: Modification of cysteine in peptide 5 using allenamides 1b-d; type: biochemical; settings: peptide sequence YDSQCFHRW; as determined by LCMS
Method: After pipette mixing, reaction mixture was allowed to stand at room temperature for 10-20 minutes. […] Site selectivity was established by LC-MS/MS.

[8] = biological target: T3, BSA (Bos taurus, UniProt P02769); assay: Labelling BSA with 6-8, SDS-PAGE analysis; type: biochemical, bovine; settings: 10 nmol label, 1 nmol BSA, Tris-HCl pH 7.4, 37° C., 30 min
T3 construct: purchased
Method: 0.1 μmol/mL solution of BSA in H2O (10 μL, 1 nmol), 1.0 μmol/mL solution of 6, 7 and 8 in H2O (10 μL each, 10 nmol) and 80 μL of Tris-HCl buffer (pH 7.4) were mixed in 1 mL eppendorf tubes and incubated at 37° C. for 30 min.

[9] = Irreversibility of the conjugation products against excess thiol (LCMS); type: physicochemical; settings: excess (100 equivalent) glutathione, overnight at 37° C.
Method: as §1

[10] = biological target: TEM1 β-Lactamase (Bla) (Escherichia coli, UniProt P62593); assay: Labelling TEM1 β-lactamase with 7, SDS-PAGE analysis; type: biochemical, bacterial; settings: Tris-HCl pH 7.4, 37° C., 30 min
Method: For TEM1 β-Lactamase, 0.1 μmol/mL solution of β-Lactamase in H2O (10 μL, 1 nmol), 1.0 μmol/mL solution of 7 in H2O (10 μL, 10 nmol) and 80 μL of Tris-HCl buffer (pH 7.4) were mixed in a 1 mL eppendorf tube and incubated at 37° C. for 30 min. After due time, reaction mixture was subjected to SDS-PAGE analysis which confirmed no labelling. In second part of this experiment, 0.1 μmol/mL solution of β-Lactamase (1 mL) was heated with 1.0 μmol/mL solution of DTT (1 mL) at 80° C. for 10 min. After cooling down to room temperature, a 10 μL aliquot of this mixture was mixed with 10 μL of 7 (2.0 μmol/mL in H2O) and 80 μL of Tris-HCl buffer (pH 7.4) and incubated at 37° C. for 30 min.

TEM1 β-Lactamase (Bla), sequence (P62593 24-286 limits assumed): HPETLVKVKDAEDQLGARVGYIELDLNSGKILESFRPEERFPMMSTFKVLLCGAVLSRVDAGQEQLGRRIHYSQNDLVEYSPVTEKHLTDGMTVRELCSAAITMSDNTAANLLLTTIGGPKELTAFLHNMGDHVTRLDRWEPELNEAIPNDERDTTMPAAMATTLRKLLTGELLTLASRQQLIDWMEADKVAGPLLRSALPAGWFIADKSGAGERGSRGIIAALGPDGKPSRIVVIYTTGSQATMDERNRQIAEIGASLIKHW
T1 sequence (P01317 25-54 limits assumed): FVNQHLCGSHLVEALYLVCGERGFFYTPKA
T1 sequence (P01317 85-105 limits assumed): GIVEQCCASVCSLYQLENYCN
T3 sequence (P02769 25-607): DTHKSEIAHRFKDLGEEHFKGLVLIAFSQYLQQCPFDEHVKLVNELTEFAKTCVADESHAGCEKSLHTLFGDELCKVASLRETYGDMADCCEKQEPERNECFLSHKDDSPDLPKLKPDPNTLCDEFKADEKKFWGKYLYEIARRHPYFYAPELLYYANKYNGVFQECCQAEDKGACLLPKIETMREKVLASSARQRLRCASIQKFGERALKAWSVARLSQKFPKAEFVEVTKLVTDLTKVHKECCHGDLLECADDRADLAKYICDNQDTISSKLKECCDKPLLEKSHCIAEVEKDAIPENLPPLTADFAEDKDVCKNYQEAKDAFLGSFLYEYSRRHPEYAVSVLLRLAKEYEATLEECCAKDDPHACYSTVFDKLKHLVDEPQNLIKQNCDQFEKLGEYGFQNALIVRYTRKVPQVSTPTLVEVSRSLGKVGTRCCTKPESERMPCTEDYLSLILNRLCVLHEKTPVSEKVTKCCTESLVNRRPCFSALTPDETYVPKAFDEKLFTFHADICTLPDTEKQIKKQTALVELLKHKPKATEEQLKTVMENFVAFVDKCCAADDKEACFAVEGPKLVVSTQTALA
T2 sequence (P02769 25-607): as above

For C=C=CC(=O)NCc1ccccc1 [Allenamide 1a, N-benzylbuta-2,3-dienamide], the “Reaction at the free amino group of cysteine methyl ester” value ([1]; even when 1a was used in excess) was “No reaction”, the “Group of cysteine methyl ester involved in the reaction” value ([1]; gives product 1aa) was “Only the free thiol group” and the “Product formation with lysine, serine and methionine” value [2] was “no product was obtained”. The “Conversion of glutathione (LCMS)” value ([3]; 2 eq. 1a, ammonium carbonate buffer pH 8.0/THF, after 15 min) was “complete conversion”, the “Site of modification in glutathione (NMR, LC-MS/MS)” value ([3]; cysteine thiol versus amino groups) was “modification at the cysteine residue” and the “Site of modification in peptides 3, 4 and 5 (LCMS and LC-MS/MS)” value [4] was “selectively at cysteine”. The “Conversion of peptides 3, 4 and 5 (LCMS)” value ([4]; 250 μM peptide, 2.5 mM 1a, pH 8.0, room temperature, 10-20 minutes) was “quantitative conversion”, the “Reaction of other amino acid residues (histidine, lysine, tyrosine and other reactive side chains) with 1a” value ([4]; even after standing overnight) was “did not give any reaction” and the “Modification of reduced insulin chains (LCMS)” value ([5]; 25 equivalents of 1a, room temperature, 30 min) was “expected modification”. The “Molecules of allenamide included in chain A” value ([5]; chain A, from molecular weight increment 692) was “four molecules”, the “Molecules of allenamide included in chain B” value ([5]; chain B, from molecular weight increment 346) was “two molecules” and the “Modification of cysteine residues of BSA (LC-MS/MS of tryptic peptides)” value [6] was “All cysteine residues in the detected peptides were found to be modified”.

In the case of C=C=CC(=O)NCC(=O)OCC [Allenamide 1b, ethyl 2-(buta-2,3-dienamido)acetate], the Conversion [7] is reported as “Quantitative”.

In the case of C=C=CC(=O)NC1CCCCC1 [Allenamide 1c, N-cyclohexylbuta-2,3-dienamide], the Conversion [7] is reported as “Quantitative”.

With C=C=CC(=O)NCCNC(=S)Nc1ccc2c(c1)C(=O)OC21c2ccc(O)cc2Oc2cc(O)ccc21 (single isomer, unassigned) [Compound 6] the “Labelling of BSA (SDS-PAGE)” value [8] was “labelling to have taken place successfully”.

In the case of C=C=CC(=O)Nc1cccc2ccccc12 [Allenamide 1d, N-(naphthalene-1-yl)buta-2,3-dienamide], the Conversion [7] is reported as “Quantitative”.

With “conjugation product of 5 and 1a: peptide YDSQCFHRW (5) modified at cysteine with allenamide 1a (YDSQC(allenamide 1a)FHRW-OH; not fully specified; reading uncertain)” the “Reversion of conjugation product to starting material 5” value [9] was “No reversion”.

For C=C=CC(=O)NCCNC(=O)CCCCC[N+]1=C(/C=C/C=C2/N(C)c3ccccc3C2(C)C)C(C)(C)c2ccccc21.[Cl-] [Compound 7], the “Labelling of BSA (SDS-PAGE)” value [8] was “labelling to have taken place successfully”, the “Labelling of β-Lactamase after DTT treatment (SDS-PAGE)” value ([10]; DTT at 80° C. for 10 min before) was “successful labelling; also recorded: successful labeling was observed” and the “Labelling of β-Lactamase without DTT treatment (SDS-PAGE)” value ([10]; no free cysteine) was “no labelling; also recorded: no labeling was observed”.
